Where two headings read alike, the source gives them in different places.
How the values were obtained:
[1] = system: resistant E. coli; test: MIC in Mueller-Hinton II broth, antibiotic + BisEDT; type: cell-based, Escherichia coli
Source text: Chloramphenicol and ampicillin resistant Escherichia coli were made sensitive to these drugs by the addition of subMIC BisEDT (Table 24).
Tetracycline resistant Escherichia coli were made sensitive to doxycycline by the addition of subMIC BisEDT (Table 25).

[2] = system: S. epidermidis; test: Growth inhibition (MIC) and MBC, BisEDT and antibiotics; type: cell-based, Staphylococcus epidermidis
Source text: Results are expressed as the mean change in MIC (dilution steps) with increasing BisEDT (n=3). See legend in FIG. 5 for antibiotic definitions.
The MIC change was most pronounced for clindamycin and gentamicin, followed by vancomycin, cefazolin, minocycline, gatifloxacin and nafcillin, with rifampicin unaffected.
Minimum bactericidal concentration (MBC) for most antibiotics tested against S. epidermidis decreased slightly with subMIC BisEDT. […] Clindamycin is a bacteriostatic agent, which explains its lack of bactericidal activity. Cefazolin resistance was reversed with respect to the MBC [Domenico et al., 2003]. These effects were additive.

[3] = system: S. epidermidis S2400-1 biofilm; test: Biofilm prevention, BisEDT-antibiotic combinations; type: cell-based, Staphylococcus epidermidis
Method: (§1) S. epidermidis grown in TSB+2% glucose in polystyrene plates for 48 h at 37° C. Gatifloxacin (GF), clindamycin (CM), minocycline (MC), gentamicin (GM), vancomycin (VM), cefazolin (CZ), nafcillin (NC), and rifampicin (RP). […]

[4] = system: S. epidermidis; test: Broth dilution MIC/MBC, BT-antibiotic combinations; type: cell-based, Staphylococcus epidermidis
Method: (§2) Materials & Methods. Susceptibility studies were performed by broth dilution in 96-well tissue culture plates (Nalge Nunc International, Denmark) in accordance with NCCLS protocols (National Committee for Clinical Laboratory Standards. (1997). Methods for Dilution Antimicrobial Susceptibility Tests for Bacteria that Grow Aerobically: Approved Standard M7-A2 and Informational Supplement M100-S10. NCCLS, Wayne, Pa., USA).
(§3) Briefly, overnight bacterial cultures were used to prepare 0.5 McFarland standard suspensions, which were further diluted 1:50 (˜2×10^6 cfu/mL) in cation-adjusted Mueller-Hinton broth medium (BBL, Cockeysville, Md., USA). BTs (prepared as described above) and antibiotics were added at incremental concentrations, keeping the final volume constant at 0.2 mL. Cultures were incubated for 24 h at 37° C. and turbidity was assessed by absorption at 630 nm using an ELISA plate reader (Biotek Instruments, Winooski, Vt., USA) according to the manufacturer's recommendations. […] Viable bacterial counts (cfu/mL) were determined by standard plating on nutrient agar.
(§4) The checkerboard method was used to assess the activity of antimicrobial combinations. The fractional inhibitory concentration index (FICI) and the fractional bactericidal concentration index (FBCI) were calculated, according to Eliopoulos et al. (Eliopoulos and Moellering, (1996) Antimicrobial combinations. In Antibiotics in Laboratory Medicine (Lorian, V., Ed.), pp. 330-96, Williams and Wilkins, Baltimore, Md., USA). Synergy was defined as an FICI or FBCI index of […], no interaction at >0.5-4 and antagonism at >4 (Odds, F C (2003) Synergy, antagonism, and what the chequerboard puts between them. Journal of Antimicrobial Chemotherapy 52:1). Synergy was also defined conventionally as ≧4-fold decrease in antibiotic concentration.

[5] = system: S. epidermidis (methicillin-susceptible and methicillin-resistant); test: Graft infection rat model, quantitative graft culture; type: in vivo; conditions: rats, s.c. Dacron graft, explanted at 7 days, 0.1 mg/l BTs, 10 mg/l RIP, 10 mg/l rifampin
Method: As summarized in Table 21, implants impregnated with 0.1 μg/ml BisEDT, 10 μg/ml RIP and 10 μg/ml rifampin, alone or combined were implanted s.c. into rats. Physiological solution (1 ml) containing the MS and MR strains at 2×10^7 cfu/ml was inoculated onto the graft surface using a tuberculin syringe. All grafts were explanted at 7 days following implantation and sonicated for 5 minutes in sterile saline solution to remove the adherent bacteria. Quantitation of viable bacteria was obtained by culturing dilutions on blood agar plates. The limit of detection was approximately 10 cfu/cm^2.

[6] = system: S. epidermidis biofilm; test: Biofilm prevention concentration (BPC), BisEDT and antibiotics; type: cell-based, Staphylococcus epidermidis; conditions: 0.05 μg/ml BisEDT
Method: as §1

[7] = system: S. aureus; test: Broth dilution MIC/MBC, BT-antibiotic combinations; type: cell-based, Staphylococcus aureus
Method: as §2, §3, §4

[8] = system: Bukholderia multivorans; test: Single-point BisEDT-antibiotic combination FICI; type: cell-based; conditions: Bmult 5665
[9] = system: Burkholderia cepacia; test: Single-point BisEDT-antibiotic combination FICI; type: cell-based; conditions: Bcep 1756
[10] = system: Streptococcus pneumoniae (SP, PRSP); test: Single-point BisEDT-antibiotic combination FICI; conditions: PRSP 5348
[11] = system: Staphylococcus aureus (SA, MRSA); test: Single-point BisEDT-antibiotic combination FICI; type: cell-based
[12] = system: Pseudomonas aeruginosa; test: Single-point BisEDT-antibiotic combination FICI; type: cell-based; conditions: PA 1380
[13] = system: Escherichia coli; test: Single-point BisEDT-antibiotic combination FICI; type: cell-based; conditions: EC 2232
[14] = system: Klebsiella pneumoniae; test: Single-point BisEDT-antibiotic combination FICI; type: cell-based; conditions: KP 1231
[15] = system: Acinetobacter baumanii; test: Single-point BisEDT-antibiotic combination FICI; type: cell-based; conditions: Abau 2594
[16] = system: B. cepacia (B. multivorans, B. cenocepacia); test: MIC and FIC index, tobramycin + BisEDT; type: cell-based, Burkholderia cepacia; conditions: 0.4 μg/ml BisEDT
[17] = system: Enterococcus faecalis; test: Single-point BisEDT-antibiotic combination FICI; type: cell-based; conditions: E Fc 3121
[18] = S. epidermidis S2400-1, BisEDT 0.1 μg/ml
[19] = S. aureus ATCC 25923, BE = 0.2 μg/ml BisEDT
[20] = tobramycin-resistant Burkholderia cepacia

CC1(C)S[C@@H]2[C@H](NC(=O)[C@H](N)c3ccccc3)C(=O)N2[C@H]1C(=O)O [AM, ampicillin]
MIC ([1]; Escherichia coli, read-out: Drug + BE MIC, Chloramphenicol/Ampicillin resistant E. coli, BE 0.33 μg/ml): 49 µg/mL

C[C@H]1c2cccc(O)c2C(=O)C2=C(O)[C@]3(O)C(=O)C(C(N)=O)=C(O)[C@@H](N(C)C)[C@@H]3[C@@H](O)[C@@H]21 [DOX, doxycycline]
FIC, doxycycline + subMIC BisEDT ([1]; E. coli TET M and TET D strains): 0.5

CO[C@H]1/C=C/O[C@@]2(C)Oc3c(C)c(O)c4c(O)c(c(/C=N/N5CCN(C)CC5)c(O)c4c3C2=O)NC(=O)/C(C)=C\C=C\[C@H](C)[C@H](O)[C@@H](C)[C@@H](O)[C@@H](C)[C@H](OC(C)=O)[C@@H]1C [Rifampin]
Reduction in MBC with subMIC BisEDT [2]: remained largely unaffected
MIC change (growth inhibition) with BisEDT ([2]; 0.1 μg/ml (0.5 μM) BisEDT): unaffected
Δ (0.05 BE), biofilm prevention ([3]; 0.05 μg/ml BisEDT): 0.7
Biofilm Prevention (antibiotic concentration) ([3]; BisEDT 0 μg/ml): 0.03 µg/mL
Biofilm Prevention (antibiotic concentration) ([3]; BisEDT 0.05 μg/ml): 0.04 µg/mL
Biofilm Prevention (antibiotic concentration) ([3]; BisEDT 0.1 μg/ml): 0.04 µg/mL
Δ, MIC ([4]; S. epidermidis ATCC 35984, 0.05 μg/ml BisEDT): 1.5
MIC ([4]; S. epidermidis ATCC 35984, BisEDT 0.0 μg/ml): 0.021 µg/mL
MIC ([4]; S. epidermidis ATCC 35984, BisEDT 0.05 μg/ml): 0.014 µg/mL
Δ (0.05 BE), MIC ([4]; S. epidermidis S2400-1, 0.05 μg/ml BisEDT): 0.75
Δ (0.1 BE), MBC ([4]; S. epidermidis S2400-1, 0.1 μg/ml BisEDT): 0.43
MIC ([4]; S. epidermidis S2400-1, BisEDT 0 μg/ml): 0.03 µg/mL
MBC ([4]; S. epidermidis S2400-1, BisEDT 0.0 μg/ml): 0.03 µg/mL
MIC ([4]; S. epidermidis S2400-1, BisEDT 0.05 μg/ml): 0.04 µg/mL
MBC [4, 18]: 0.07 µg/mL
MIC [4, 18]: 0.04 µg/mL
Quantitative graft culture ([5]; methicillin-resistant S. epidermidis): 7.6 × 10^4 ± 2.1 × 10^4 cfu/cm^2
Quantitative graft culture ([5]; methicillin-susceptible S. epidermidis): 5.9 × 10^3 ± 1.8 × 10^3 cfu/cm^2
Change of biofilm prevention concentration (BPC) [6]: remained unaffected
Δ ([7]; MRSA S2446-3, BE = 0.2 μg/ml BisEDT): 1.0
Synergy [7, 19]: + (Synergy was also defined conventionally as ≧4-fold decrease in antibiotic concentration)
Δ [7, 19]: 13.0
MIC ([7]; Staphylococcus aureus, ATCC25923, S. aureus ATCC 25923, antibiotic alone, read-out: MIC): 0.033 µg/mL
MIC ([7]; Staphylococcus aureus, ATCC25923, S. aureus ATCC 25923, with 0.2 μg/ml BisEDT, read-out: MIC + BE): 0.003 µg/mL
MIC ([7]; Staphylococcus aureus, MRSA, MRSA S2446-3, antibiotic alone, read-out: MIC): 2.5 µg/mL
MIC ([7]; Staphylococcus aureus, MRSA, MRSA S2446-3, with 0.2 μg/ml BisEDT, read-out: MIC + BE): 2.5 µg/mL

NC[C@H]1O[C@H](O[C@H]2[C@H](O)[C@@H](O[C@H]3O[C@H](CO)[C@@H](O)[C@H](N)[C@H]3O)[C@H](N)C[C@@H]2N)[C@H](N)C[C@@H]1O [Tobramycin]
FICI, single-point BisEDT-antibiotic combination [8]: 0.67
FICI, single-point BisEDT-antibiotic combination [9]: 0.91
FICI, single-point BisEDT-antibiotic combination [10]: 0.57
FICI, single-point BisEDT-antibiotic combination ([11]; MRSA 773): 0.78
FICI, single-point BisEDT-antibiotic combination ([11]; SA 100): 0.73
FICI, single-point BisEDT-antibiotic combination [12]: 1.29
MBC ([7]; Staphylococcus aureus, Tobramycin resistant strains table, S. aureus SA-29213, read-out: NN MBC): 2 µg/mL
MIC ([7]; Staphylococcus aureus, Tobramycin resistant strains table, S. aureus SA-29213, read-out: NN MIC): 2 µg/mL
FICI, single-point BisEDT-antibiotic combination [13]: 0.96
FICI, single-point BisEDT-antibiotic combination [14]: 0.87
FICI, single-point BisEDT-antibiotic combination [15]: 1.12
Isolates rendered tobramycin sensitive [16]: seven of 10
Fold reduction of tobramycin MIC90 [16, 20]: 10 fold
mean FIC [16, 20]: 0.48
FICI, single-point BisEDT-antibiotic combination [17]: 0.47

Source: patent publication US9408393B2, “Bismuth-thiols as antiseptics for agricultural, industrial and other uses” (Microbion Corporation, priority 2010, dated 2016)
